Experimental data taken from PubChem BioAssay AID1963860 (Molecular Pharmacology Branch, DTP, NCI, 2024).
Values joined by “and” are separate entries in the source; they are usually repeats but may differ in a detail not shown here. Identical values can stand only once.

Tested on: CN0375-F725-PDC KRAS spheroid viability
Assay: Anticancer human tumor CN0375-F725-PDC patient-derived colon carcinoma cell line growth inhibition [KRAS2]
Conditions: spheroids with HUVEC and MSC; for viability, T/C: stronger effect = lower value
Excerpt: Multicellular complex tumor spheroid response to RAS pathway inhibitors in combination with a targeted agents in patient-derived cell lines with oncogenic KRAS variants from multiple cancer types
A high-throughput screen of multi-cell type tumor spheroids was designed to identify active combinations of targeted small molecules and KRAS pathway inhibitors. Complex spheroids include a stromal component modeled by human endothelial cells (HUVEC) and fibroblasts modeled by human mesenchymal stem cells (MSCs). The concentration ranges selected for each drug and investigational agent were based upon clinically achievable concentrations if the clinical Cmax of the agent was known.
Compounds. The drugs and investigational agents: BI-3406 (NSC825286), BAY-293 (NSC824723), batoprotafib (TNO155; NSC825523), sotorasib (AMG 510; NSC818433), MRTX1257 (NSC819558), elimusertib (BAY 1895344; NSC800525), molibresib (GSK525762; NSC774829), temuterkib (LY3214996; NSC803410), venetoclax (NSC766270), alisertib (NSC759677), olaparib (NSC753686), talazoparib (NSC767125), erdafitinib (NSC781556), ipatasertib (NSC767898), cabozantinib (NSC761068), nintedanib (NSC756659), abemaciclib (NSC768073), docetaxel (NSC628503), trametinib (NSC758246), and sapanisertib (NSC764658) were obtained from the National Cancer Institute (NCI) Developmental Therapeutics Program Chemical Repository. The FDA-approved anticancer drug set is available from the Developmental Therapeutics Program. […] The stock solutions were prepared in dimethyl sulfoxide (DMSO, Sigma-Aldrich, St. Louis, MO, cat. D2650) at 800-fold the tested concentration and stored at -70 degrees C prior to their use. All drugs and investigational agents were tested over a range starting from a high concentration at or near the clinical Cmax and decreasing in half-log increments. If the clinical Cmax for an agent had not been determined, the highest concentration tested was 10 microM.
Cell Culture. All cells were maintained in an incubator at 37 degrees C and 5% CO2 with 95% humidity. The PDC lines were cultured according to standard operating procedures established by the NCI PDMR (https://pdmr.cancer.gov/sops/default.htm). Briefly, all PDCs were thawed and cultured in Matrigel-coated flasks prepared with a working solution of 1X Ham's F-12 nutrient mix, without supplementation (Invitrogen, Waltham, MA, cat. 11765054), 100 U/mL penicillin-streptomycin (Invitrogen, cat. 15140122), and 2.5% Matrigel (Corning Inc., Corning, NY, cat. 354248) for the first three passages. All PDCs were cultured in complete DMEM/F-12 media containing advanced DMEM/F-12 (Invitrogen, cat. 12634028), 4.9% defined fetal bovine serum, heat inactivated (HyClone Laboratories Inc., Logan, UT, cat. SH30070.03HI), 389 ng/mL hydrocortisone (Sigma-Aldrich, cat. H4001), 9.7 ng/mL human EGF recombinant protein (Invitrogen, cat. PHG0313), 23.4 microg/mL adenine (Sigma-Aldrich, cat. A2786), 97.3 U/mL penicillin-streptomycin (Invitrogen, cat. 15140122), 1.9 mM L-glutamine (Invitrogen, cat. 25030081), and 9.7 microM Y-27632 dihydrochloride (Tocris Bioscience, Bristol, United Kingdom, cat. 1254). The PDCs were cultured in complete DMEM/F12 media without 9.7 microM Y-27632 dihydrochloride for at least two passages prior to the screen. The established cell line HOP-62 was cultured in RPMI 1640 medium, HEPES (Invitrogen, cat. 22400105) with 10% defined fetal bovine serum (HyClone Laboratories Inc., cat. SH30070.03) and 2 mM L-glutamine (Invitrogen, cat. 25030081). The pooled donor HUVEC were cultured in endothelial cell growth medium 2 (PromoCell, Heidelberg, Germany, cat. C-22011) and the hMSC were cultured in mesenchymal stem cell growth medium 2 (PromoCell, cat. C-28009). For all experiments, HUVEC and hMSC were used at passages </=5, while the malignant cell lines were used at passages </=15. […]

[1] = compound alone, run of 08/26/2021
[2] = compound alone, run of 09/02/2021
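Also: spheroids exposed to agents for 7 days.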

Row | Compound | viability, T/C (compound 0.0316 µM) | viability, T/C (compound 0.1 µM) | viability, T/C (compound 0.316 µM) | viability, T/C (compound 1 µM) | IC50 [1] | IC50 [2] | viability, T/C (compound 0.0001 µM) | viability, T/C (compound 0.000316 µM) | viability, T/C (compound 0.001 µM) | viability, T/C (compound 0.00316 µM) | viability, T/C (compound 0.01 µM) | IC50 (curve of compound) | viability, T/C (compound 3.16 µM) | viability, T/C (compound 10 µM) | IC50 (compound alone, run of 08/19/2021)
1 | C=CC(=O)N1CCN(c2nc(OCC3CCCN3C)nc3c2CCN(c2cccc4cccc(C)c24)C3)CC1CC#N (stereo not given) | 100% [middle of 17 runs] | 100% [middle of 17 runs] | 98.1% [middle of 17 runs] | 92.7% [middle of 17 runs] | 1.82 µM [middle of 5 runs] | 2.09 µM [middle of 5 runs] |  |  |  |  |  |  |  |  | 
2 | CC(=O)Nc1cccc(-n2c(=O)n(C3CC3)c(=O)c3c(Nc4ccc(I)cc4F)n(C)c(=O)c(C)c32)c1 | 34.5% [middle of 5 runs] |  |  |  |  |  | 97.8% [middle of 5 runs] | 84.8% [middle of 5 runs] | 71.6% [middle of 5 runs] | 59.6% [middle of 5 runs] | 47.5% [middle of 5 runs] | 7.97 nM [middle of 5 runs] |  |  | 
3 | CC(=O)OC12COC1CC(O)C1(C)C(=O)C(O)C3=C(C)C(OC(=O)C(O)C(NC(=O)OC(C)(C)C)c4ccccc4)CC(O)(C(OC(=O)c4ccccc4)C21)C3(C)C (stereo not given) | 97.7% [middle of 5 runs] | 89.3% [middle of 5 runs] | 89% [middle of 5 runs] | 83.2% [middle of 5 runs] |  |  |  |  |  |  | 101% [middle of 5 runs] | > 3.16 µM | 80.8% [middle of 5 runs] |  | 
4 | CC(C)NCC(C(=O)N1CCN(c2ncnc3c2C(C)CC3O)CC1)c1ccc(Cl)cc1 (stereo not given) | 103% [middle of 5 runs] | 102% [middle of 5 runs] | 96.5% [middle of 5 runs] | 93.9% [middle of 5 runs] |  |  |  |  |  |  |  | > 10 µM | 91.8% [middle of 5 runs] | 76.8% [middle of 5 runs] | 
5 | CC(C)n1nc(-c2ccc3oc(N)nc3c2)c2c(N)ncnc21 | 55.5% [middle of 5 runs] | 45.2% [middle of 5 runs] |  |  |  |  |  | 97.5% [middle of 5 runs] | 93.1% [middle of 5 runs] | 79% [middle of 5 runs] | 70.7% [middle of 5 runs] | 64.7 nM [middle of 5 runs] |  |  | 
6 | CC1(C)CCC(CN2CCN(c3ccc(C(=O)NS(=O)(=O)c4ccc(NCC5CCOCC5)c([N+](=O)[O-])c4)c(Oc4cnc5[nH]ccc5c4)c3)CC2)=C(c2ccc(Cl)cc2)C1 | 106% [middle of 5 runs] | 102% [middle of 5 runs] | 106% (3×) and 95.8% and 104% | 104% [middle of 5 runs] |  |  |  |  |  |  |  |  | 67.7% [middle of 5 runs] |  | 
7 | CC1COCCN1c1cc(-c2ccnn2C)c2ccnc(-c3ccn[nH]3)c2n1 (stereo not given) | 97.3% [middle of 5 runs] | 90.8% [middle of 5 runs] | 85.7% [middle of 5 runs] | 72.1% [middle of 5 runs] |  |  |  |  |  |  | 105% [middle of 5 runs] | > 3.16 µM | 58.4% [middle of 5 runs] |  | 
8 | CC1OCC2(CCN(c3cnc(Sc4ccnc(N)c4Cl)c(N)n3)CC2)C1N (stereo not given) | 98.4% and 98.5% and 100% | 94.9% [middle of 19 runs] | 89.6% [middle of 19 runs] |  | > 10 µM | > 10 µM |  |  |  |  |  | > 10 µM | 78.7% [middle of 20 runs] |  | > 10 µM
9 | CCN1CCN(Cc2ccc(Nc3ncc(F)c(-c4cc(F)c5nc(C)n(C(C)C)c5c4)n3)nc2)CC1 | 91.2% [middle of 5 runs] | 97.8% [middle of 5 runs] | 107% [middle of 5 runs] | 101% [middle of 5 runs] |  |  |  |  |  | 102% [middle of 5 runs] | 95.6% [middle of 5 runs] | > 1 µM |  |  | 
10 | CCNC(=O)CC1N=C(c2ccc(Cl)cc2)c2cc(OC)ccc2-n2c(C)nnc21 (stereo not given) | 100% [middle of 5 runs] | 97.1% [middle of 5 runs] | 90.4% [middle of 5 runs] | 84.2% [middle of 5 runs] |  |  |  |  |  |  |  | > 10 µM | 74.3% [middle of 5 runs] | 58.6% [middle of 5 runs] | 
11 | CN(C)C/C=C/C(=O)Nc1cc2c(Nc3ccc(F)c(Cl)c3)ncnc2cc1O[C@H]1CCOC1 | 79.2% [middle of 5 runs] | 81.1% [middle of 5 runs] |  |  |  |  |  | 105% [middle of 5 runs] | 94.1% [middle of 5 runs] | 90.4% [middle of 5 runs] | 88.3% [middle of 5 runs] | > 0.1 µM |  |  | 
12 | COc1cc(Nc2ncc3c(n2)-c2ccc(Cl)cc2C(c2c(F)cccc2OC)=NC3)ccc1C(=O)O | 102% [middle of 5 runs] | 101% [middle of 5 runs] | 93.7% [middle of 5 runs] | 96.3% [middle of 5 runs] |  |  |  |  |  |  |  | > 10 µM | 94.8% [middle of 5 runs] | 78.3% [middle of 5 runs] | 
13 | COc1cc(OC)cc(N(CCNC(C)C)c2ccc3ncc(-c4cnn(C)c4)nc3c2)c1 | 94.3% [middle of 5 runs] | 91.7% [middle of 5 runs] | 92.1% [middle of 5 runs] | 103% [middle of 5 runs] |  |  |  |  |  |  |  | 5.06 µM [middle of 4 runs] | 82.9% [middle of 5 runs] | 2.52% [middle of 5 runs] | 
14 | Cn1nccc1Nc1nccc(-c2cc3c(s2)C(C)(C)N(CCN2CCOCC2)C3=O)n1 | 104% [middle of 5 runs] | 90% [middle of 5 runs] | 77.5% [middle of 5 runs] | 72.3% [middle of 5 runs] |  |  |  |  |  |  |  | 5.56 µM [middle of 5 runs] | 56.5% [middle of 5 runs] | 44.6% [middle of 5 runs] | 
15 | Cn1ncnc1[C@H]1c2n[nH]c(=O)c3cc(F)cc(c23)N[C@@H]1c1ccc(F)cc1 | 102% [middle of 5 runs] | 96% [middle of 5 runs] |  |  |  |  |  | 107% [middle of 5 runs] | 102% [middle of 5 runs] | 99.8% [middle of 5 runs] | 101% [middle of 5 runs] | > 0.1 µM |  |  | 
16 | O=C(c1cc(Cc2n[nH]c(=O)c3ccccc23)ccc1F)N1CCN(C(=O)C2CC2)CC1 | 107% [middle of 5 runs] | 106% [middle of 5 runs] | 102% [middle of 5 runs] | 107% [middle of 5 runs] |  |  |  |  |  |  |  | > 10 µM | 105% [middle of 5 runs] | 96.7% [middle of 5 runs] | 
